Results on five compounds are retold here after patent publication US4513008A, “Virucidal compositions and therapy” (The Vinoxen Company, Inc., priority 1982, dated 1985).

The subject of one data set is HSV-2. Briefly: In vivo mouse bioassay: intravaginal HSV-2 infection, topical treatment. The arrangement: species or system HSV-2 strain 333 in female Swiss Webster mice; key to Max. Lesion Score: 0: no clinical signs of vaginal infection; ±: slight perivaginal redness; perivaginal redness and swelling of 1-2 mm; perivaginal redness and swelling of 2-3 mm; perivaginal and perianal redness and swelling of 3-4 mm; perivaginal and perianal redness and swelling of 4 mm or more, with exudate. To be noted: for # Infected, Day 14 / # of Deaths, Day 14: 10 animals/group.

Another data set deals with herpes virus type 2. Briefly: Guinea pig bioassay: intravaginal HSV-2 infection, topical treatment. Format: in vivo. The arrangement: key to MVL Score Day 5 / MVL Score Day 6 / MVL Score Day 7 / MVL Score Day: lesion severity scored on 0 to 4 scale. On the procedure:
In both studies, DHA was compared with ACV in a controlled study for effectiveness in reducing the occurrence and the severity of lesions resulting from infection by HSV-2 and in reducing mortality resulting from the virus infection.
Using substantially the procedures of Pancic et al., loc. cit., the topical activity of DHA, a representative and preferred virucide for use in the present method, was evaluated in mice and in guinea pigs. Both evaluations included comparative testing against ACV and the mouse tests included a comparison of two different vehicles.
A blind comparative test was carried out on guinea pigs using coded substances labeled A through D. The testers were told only that one of the four substances was ACV, that the other three coded samples were the same material, in concentrations of 0.1, 1.0 and 10 mg/ml, and that all four samples were formulated in a polyethylene glycol 1000 (PEG-1000) vehicle. A separate sample of the PEG-1000 was also submitted to serve as a placebo for treating virus control animals. The materials and experimental protocol is shown below.
Animals. Female Hartley strain albino guinea pigs weighing about 450-500 g were used. The animals were quarantined 24 hr prior to use in this study, and maintained 5 to a 32"×32"×9" stainless steel cage on Wayne guinea pig diet and water ad libitum.
Virus. Strain E194 of herpes virus type 2 was used. […] The virus was held at -90° C. until used.
(§1) Drugs. The substances tested consisted of four bottles labelled "A", "B", "C", and "D" with no identifying key. The samples were: A, 0.1 mg/ml DHA (0.003 mmol/ml); B, 5% w/w ACV (0.22 mmol/ml); C, 1 mg/ml DHA (0.03 mmol/ml); and D, 10 mg/ml DHA ([…]). […] All were treated as light-sensitive compounds.
Experimental Protocol. The guinea pigs were infected by applying a virus-soaked swab intravaginally, with agitation, for 20 seconds. […] Treatment began 20 hr later, with the compound or placebo applied topically intravaginally, perivaginally, and perianally using cotton swabs soaked in the respective substance. Treatment continued three times daily (8 a.m., noon, 4 p.m.) for 7 days. Ten infected animals were used for each coded substance, with twenty used for virus controls. Five sham-infected animals were concomitantly treated with each coded substance to serve as toxicity controls. Two guinea pigs were held separately to serve as normal untreated controls.
On days 5 through 8 post-virus inoculation, the genital area was carefully examined and signs of irritation in the toxicity controls and lesion severity in injected animals was scored on a 0 to 4 scale using the same scale as in the mouse bioassay. The results were scored as average daily lesion (ADL) scores for each group, and as mean vaginal lesion (MVL) scores, calculated as the mean of the ADL scores for days 5-8. The maximum mean score for the toxicity control animals was also determined.
On day 6 prior to the 8 a.m. treatment, intravaginal and perivaginal areas of each infected guinea pig were uniformly swabbed with sterile cotton swabs. The swab for each animal was placed in 1.0 ml of sterile Eagles minimum essential medium and immediately frozen at -90° C.; several days later all were thawed and each swab-containing sample vortexed for 15 seconds and then the sample was diluted through a series of 10-fold dilutions in sterile medium. Each dilution was assayed for virus in triplicate by adding 0.1 ml to an established monolayer of MA-104 cells in 96-well disposable plastic microplates. The plates were sealed, incubated at 72 hr at 37° C., and virus-induced cytopathic effect noted microscopically.
Data Analysis. Increases in survivors were analyzed using chi square analysis with Yate's correction. Mean survival times (MST) of animals dying on or before […] were determined for each group, and evaluated using the t test.

A short description of data set [1]: Guinea pig toxicity controls (sham-infected, topical treatment). The class given is in vivo, guinea pigs. To be noted: B: 5% w/w ACV in PEG-1000. The method, then:
as §1
Experimental Protocol. The guinea pigs were infected by applying a virus-soaked swab intravaginally, with agitation, for 20 seconds. Toxicity control animals were similar pretreated using swabs soaked in sterile Puck's balanced salt solution. Treatment began 20 hr later, with the compound or placebo applied topically intravaginally, perivaginally, and perianally using cotton swabs soaked in the respective substance. Treatment continued three times daily (8 a.m., noon, 4 p.m.) for 7 days. Ten infected animals were used for each coded substance, with twenty used for virus controls. Five sham-infected animals were concomitantly treated with each coded substance to serve as toxicity controls. Two guinea pigs were held separately to serve as normal untreated controls.
Each animal was observed daily for survival for a total of 28 days. On days 5 through 8 post-virus inoculation, the genital area was carefully examined and signs of irritation in the toxicity controls and lesion severity in injected animals was scored on a 0 to 4 scale using the same scale as in the mouse bioassay. The results were scored as average daily lesion (ADL) scores for each group, and as mean vaginal lesion (MVL) scores, calculated as the mean of the ADL scores for days 5-8. The maximum mean score for the toxicity control animals was also determined.

The test system of the next data set is PR4 bacteriophage. As to conditions: PR4 bacteriophage in vitro; cited from earlier work.
For data set [2], the system named is gram-positive and gram-negative microorganisms. To be noted: cited from earlier work.
Data set [3] has as its system herpes simplex virus type 2 (HSV-2). Put plainly: In vitro HSV-2 bioassay: virucidal plaque assay (HEP-2 cells). Format: cell-based, HSV-2 strain 333. As to conditions: for plaque count: TNTC = too numerous to count. On the procedure:
Evidence of the efficacy of the virucides of the invention in vitro has been obtained from bioassay using HSV-2, using a standard assay procedure. Serial dilutions of the compounds were tested for their ability to prevent plaque formation by a stock virus suspension. Reduction of plaque titer by test compounds as compared to mock treated controls was indicative of virucidal activity. […] These represent the upper limit for the drug concentration, since dilutions were not carried beyond 1:6400 and in some cases 1:12800.
Cell Culture. Cell cultures used for the propagation and titration of HSV-2 were the human diploid lung embryonic line MRC-5 and the human malignant epitheloid cell line HEP-2 respectively. Stock monolayer cultures of both cell lines were propagated in Dulbecco's Modified Eagle's medium (DME) supplemented with 10% (V/V) calf serum. Spinner cultures for mass production of HEP-2 cells were grown in Joklik's medium supplemented with 10% (V/V) calf serum and 1% (W/V) pluronic acid. Monolayer cultures of HEP-2 cells for plaque or virucidal assay were seeded into 60 mm dishes in DME supplemented with 10% calf serum and antibiotics. Stock cultures were maintained in antibiotic free medium.
Herpes simplex virus, type 2 (HSV-2) strain 333 was obtained from Dr. John Hughes of the Dept. of Medical Microbiology, College of Medicine, The Ohio State University. Stocks of HSV-2 were prepared in the human diploid embryonic lung cell line, MRC-5. Confluent MRC-5 monolayer cultures in T-75 plastic flasks were washed one time with Hank's and Balanced Salt solution (HBSS) and infected with 0.5 ml of HSV-2, strain 333 stock. Virus was adsorbed for 1 hour at 37° C. Then the culture was refed with 15 ml of DME supplemented with 1% (V/V) calf serum. Virus was harvested 48 hours later when cytopathology was complete. Cultures were frozen and thawed rapidly three times to release cell associated virus, clarified by centrifugation at 10,000×g for 15 minutes at 4° C., aliquoted into 5 ml lots and frozen at -70° C. One lot was taken for virus titration.
HSV-2 was titrated by plaque assay in HEP-2 cells under a semi-solid methyl cellulose overlay. Tenfold serial dilutions of virus were prepared in HBSS and 0.3 ml aliquots of each dilution inoculated onto triplicate HEP-2 cell monolayers in 60 mm plastic petri dishes. Adsorption of virus was for 1 hour at 37° C. Plates were then overlayed with 5 ml of a 1:1 mixture of 2×DME supplemented with 2% (V/V) calf serum and 3% (W/V) methyl cellulose to give a final 1×DME supplemented with 1% calf serum and 1.5% methylcellulose. Infected plates were incubated at 37° C. in a humidified 10% CO2 atmosphere for 48 hours. Virus plaques were visualized by staining with crystal violet and counted under a dissecting microscope. Virus titers were calculated from the plaque numbers by averaging the plaque count and multiplying by 3.3 (0.3 ml plates).
The following procedure was employed to assay virucidal activity in various test samples. Compounds were received as a solution in DMSO and were serially diluted in HBSS as described for each experiment. For the test, 1 ml of each dilution was mixed with 1 ml of a stock virus suspension diluted to approximately 9×10^3 plaque forming units (P.F.U.)/ml. This test mixture was incubated at 25° C. for 30 minutes, then inoculated onto a cell culture (HEP-2) for plaque assay as described previously. Mock treated (virus plus HBSS) controls were included with each test. Any reduction of plaque titer by test compounds as compared to the mock treated control was indicative of virucidal activity.
Samples from RP-HPLC fractionation of the CLOH, produced according to Example 2, as well as purified samples of palmitic, myristic and oleic acids and Vitamin D2, were tested for HSV-2 bioactivity. […] Pure oleic acid was not active in this assay, nor were palmitic and myristic acids and Vitamin D2. […]

The test system of another data set is bacteriophage. To be noted: cited from earlier work.
In a further data set the test system is virus. As to conditions: cited from earlier work.

As for `Nc1nc2c(ncn2COCCO)c(=O)[nH]1` [Acyclovir, 9-(2-hydroxyethoxymethyl)guanine, reference compound], in the data set with HSV-2 (ACV 5% wt/vol in DMSO), the “Max. Lesion Score” value is “±”; the “# Infected, Day 14” value is 3; the “# of Deaths, Day 14” value is 0. Further, in the data set with HSV-2 (ACV 5% wt/vol in PEG), the “Max. Lesion Score” value is given as “±”; the “# Infected, Day 14” value is reported as 4; the “# of Deaths, Day 14” value worked out at 0. Also, in the data set on HSV-2 (DMSO & Acyclovir (5%)), the “% Mortality” value was found to be 0%, the “Day of Maximum % Morbidity” value was 7 days, the “Maximum % Morbidity” value is reported as 30% and the “Mean Day of Death” value was more than 14 days. Moreover, in the data set with HSV-2 (Ointment & Acyclovir (5%)), the “% Mortality” value is given as 0%, the “Day of Maximum % Morbidity” value was 7 days, the “Maximum % Morbidity” value was 40% and the “Mean Day of Death” value was more than 14 days. The compound also registered a survival rate in the data set on HSV-2 (both carrier vehicles, observed 14 day period) of 100%. In addition, in the data set on HSV-2 (topical, HSV-2 infected mice), the “efficacy in mice in words” value is reported as “effective in minimizing the clinical signs of infection in either carrier vehicle”. In addition, in the data set on herpes virus type 2 (B: 5% w/w ACV in PEG-1000), the “MVL Score Day 5” value is given as 1.8 and the “MVL Score Day 7” value amounted to 3.4. For the same compound, in the data set on herpes virus type 2 (B: 5% w/w ACV in PEG-1000, 0 to 4 scale), the “MVL Scores Days 5-8” value is 2.8. The “Infected, Treated Surv/Total” value in the data set on herpes virus type 2 (B: 5% w/w ACV in PEG-1000, 28 days) is 5/10. Further, in the data set with herpes virus type 2 (B: 5% w/w ACV in PEG-1000, P < 0.05), the “MVL Score Day 6” value worked out at 2.3. The “MVL Score Day” value with herpes virus type 2 (B: 5% w/w ACV in PEG-1000, last day) came out at 3.3. Besides, in the data set with herpes virus type 2 (guinea pigs, topical), the “reduction in lesion scores, in words” value is given as “neither ACV nor the lowest dosage of DHA were able to achieve a statistically significant reduction in lesion scores”. For the same compound, the “Toxicity Controls Surv/Total” value in data set [1] is on record as 5/5. Moreover, in data set [1] (0 to 4 scale), the “Toxicity Controls Max. Irrit. Score” value is 0.0.
As to `CCCCC/C=C\C/C=C\C/C=C\C/C=C\CCCC(=O)O` [Arachidonic acid], in the data set on PR4 bacteriophage, the “inhibition of viral replication, in words” value was “moderately effective, but less effective than linolenic acid”. For the same compound, in data set [2], the “inhibition of growth of microorganisms, in words” value is “not inhibitory at the concentrations tested”.
Consider `CCCCCCCC/C=C\CCCCCCCC(=O)O` [Oleic acid, reference compound], for which the plaque count is reported as 36 in data set [3] (Table 1, dilution 1:10); “TNTC” in data set [3] (Table 1, dilution 1:100); “TNTC” in data set [3] (Table 1, dilution 1:200); “TNTC” in data set [3] (Table 1, dilution 1:400); “TNTC” in data set [3] (Table 1, dilution 1:800); “TNTC” in data set [3] (Table 1, dilution 1:1600). For the same compound, the plaque count result is listed as “TNTC” in data set [3] (Table 1, dilution 1:3200) and “TNTC” in data set [3] (Table 1, dilution 1:6400). Also, in data set [3] (Table 1, dilution 1:10, controls 2.6 × 10^4 (a), 1.3 × 10^4 (b)), the titer is on record as 1.2 × 10^2. For the same compound, the “virucidal activity against HSV-2 in words” value in data set [3] (in vitro bioassay) was “not active”. In the data set with bacteriophage, the “inactivation of virus (virucidal activity), in words” value is given as “most effective fatty acid tested”. Besides, the “inhibition of viral replication, in words” value in the data set with PR4 bacteriophage is “most effective”.
As to `CCCCCC=CCC=CCC=CCCCCCO` [gamma-linolenyl alcohol, 6,9,12-octadecatrien-1-ol], the “antiviral activity in vitro, in words” value with virus is listed as “most active”.
As to `CCCCCC/C=C\CCCCCCCC(=O)O` [palmitoleic acid], the “inhibition of viral replication, in words” value in the data set with PR4 bacteriophage is “most effective”.
